# Like-named read-outs stand apart in the source and are kept apart here.
# What was measured:
# [1] = tested on: Pseudomonas aeruginosa (NCTC 7244); test: Minimum bactericidal concentration (Referential Example 2, Table 2); type: cell-based; details: NCTC7244, 18 h, subculture on HIA medium
# Description: (§1) The compounds obtained in Synthesis Examples 1 to 4 were tested in the following manner.
# (§2) A suspension of Pseudomonas aeruginosa (NCTC 7244) cultivated at 37° C. for 18 hours in a heart infusion broth medium (HIB medium) in a final amount of 10^5, 10^6 and 10^7 cells/ml in an HIB medium containing each of the test compounds which was obtained in the same way as in Referential Example 1 except that the maximum concentration of the test compound was 200 μg/ml. The bacterial strain was cultivated at 37° C. for 18 hours, and the turbidity of the culture broth was evaluated with the naked eye. The minimum concentration of the test compound at which no turbidity was noted was defined as MIC.
# The growth of the bacterial strain was evaluated.
# [2] = tested on: Staphylococcus aureus (FDA 209P); test: MIC, agar plate dilution (Referential Example 1, Table 1); type: cell-based; details: FDA209P, read-out: Minimum growth inhibitory concentration (MIC)
# Description: (§3) The antibacterial activities of the cephalosporins of this invention were measured using the sodium salts of the compounds obtained in Synthesis Examples 1 and 2. The procedure and the results are shown in Referential Example 1.
# (§4) Carbenicillin sodium salt (CB-PC) and cephazoline sodum salt (CEZ) were used as controls.
# (§5) The antibacterial activities of the test compounds against various Gram-positive and Gram-negative bacteria were determined in a customary manner by the minimum growth inhibitory concentration method (MIC method).
# (§6) The experimental procedure was as follows:
# (§7) A commercially available heart infusion agar medium (to be abbreviated HIA medium) was used as an assay medium, and a commercially available trypto-soy bouillon medium (to be abbreviated TSB) was used as a medium for the growth of test bacterial strains.
# (§8) The test compound was diluted with the melted HIA medium to 100 μg/ml as a maximum concentration, and then serially diluted double. The dilutions were poured into sterilized Petri dishes respectively and allowed to cool and solidify to prepare plates containing the test compound.
# (§9) The test bacterial strain was cultivated at 37° C. for 18 to 24 hours in the TSB medium. The culture broth was diluted to 50 to 500 times with a freshly prepared TSB culture medium, and one platinum loopful of the dilution was inoculated in each of the plates containing the test compound.
# [3] = tested on: Pseudomonas aeruginosa (395); test: as above; type: cell-based; details: HIA medium plate, 37° C., 18 hours, read-out: Minimum growth inhibitory concentration (MIC)
# Description: as §3, §4, §5, §6, §7, §8, §9
# [4] = tested on: Pseudomonas aeruginosa (IFO-3901); test: as above; type: cell-based; details: IFO3901, HIA medium plate, 37° C., 18 hours, read-out: Minimum growth inhibitory concentration (MIC)
# Description: as §3, §4, §5, §6, §7, §8, §9
# [5] = tested on: Escherichia coli (14H114); test: as above; type: cell-based; details: HIA medium plate, 37° C., 18 hours, read-out: Minimum growth inhibitory concentration (MIC)
# Description: as §3, §4, §5, §6, §7, §8, §9
# [6] = tested on: Pseudomonas aeruginosa (NCTC 7244); test: as above; type: cell-based; details: NCTC7244, HIA medium plate, 37° C., 18 hours, read-out: Minimum growth inhibitory concentration (MIC)
# Description: as §3, §4, §5, §6, §7, §8, §9
# [7] = tested on: Pseudomonas aeruginosa (ATCC 10145); test: as above; type: cell-based; details: ATCC10145, HIA medium plate, 37° C., 18 hours, read-out: Minimum growth inhibitory concentration (MIC)
# Description: as §3, §4, §5, §6, §7, §8, §9
# [8] = tested on: Proteus rettgeri (T-2); test: as above; type: cell-based; details: Providencia rettgeri; HIA medium plate, 37° C., 18 hours; read-out: Minimum growth inhibitory concentration (MIC)
# Description: as §3, §4, §5, §6, §7, §8, §9
# [9] = tested on: Escherichia coli (NIHJ); test: as above; type: cell-based; details: HIA medium plate, 37° C., 18 hours, read-out: Minimum growth inhibitory concentration (MIC)
# Description: as §3, §4, §5, §6, §7, §8, §9
# [10] = tested on: Citrobacter freundii (F-34); test: as above; type: cell-based; details: HIA medium plate, 37° C., 18 hours, read-out: Minimum growth inhibitory concentration (MIC)
# Description: as §3, §4, §5, §6, §7, §8, §9
# [11] = tested on: Enterobacter cloacae (D-49); test: as above; type: cell-based; details: HIA medium plate, 37° C., 18 hours, read-out: Minimum growth inhibitory concentration (MIC)
# Description: as §3, §4, §5, §6, §7, §8, §9
# [12] = tested on: Klebsiella pneumoniae (ATCC 10031); test: as above; type: cell-based; details: read-out: Minimum growth inhibitory concentration (MIC)
# Description: as §3, §4, §5, §6, §7, §8, §9
# [13] = tested on: Salmonella enteritidis (KB-21); test: as above; type: cell-based; details: Salmonella enterica, 18 h, read-out: Minimum growth inhibitory concentration (MIC)
# Description: as §3, §4, §5, §6, §7, §8, §9
# [14] = tested on: Proteus vulgaris (OX-19); test: as above; type: cell-based; details: read-out: Minimum growth inhibitory concentration (MIC)
# Description: as §3, §4, §5, §6, §7, §8, §9
# [15] = tested on: Pseudomonas aeruginosa (718); test: as above; type: cell-based; details: HIA medium plate, 37° C., 18 hours, read-out: Minimum growth inhibitory concentration (MIC)
# Description: as §3, §4, §5, §6, §7, §8, §9
# [16] = tested on: Pseudomonas maltophilia (F-6257); test: as above; type: cell-based; details: Stenotrophomonas maltophilia; HIA medium plate, 37° C., 18 hours; read-out: Minimum growth inhibitory concentration (MIC)
# Description: as §3, §4, §5, §6, §7, §8, §9
# [17] = tested on: Pseudomonas aeruginosa (S-1); test: as above; type: cell-based; details: HIA medium plate, 37° C., 18 hours, read-out: Minimum growth inhibitory concentration (MIC)
# Description: as §3, §4, §5, §6, §7, §8, §9
# [18] = tested on: Bacillus cereus (IAM 1792); test: as above; type: cell-based; details: IAM1792, HIA medium plate, 37° C., 18 hours, read-out: Minimum growth inhibitory concentration (MIC)
# Description: as §3, §4, §5, §6, §7, §8, §9
# [19] = tested on: Klebsiella pneumoniae (B-172); test: as above; type: cell-based; details: HIA medium plate, 37° C., 18 hours, read-out: Minimum growth inhibitory concentration (MIC)
# Description: as §3, §4, §5, §6, §7, §8, §9
# [20] = tested on: Escherichia coli (26RO3); test: as above; type: cell-based; details: HIA medium plate, 37° C., 18 hours, read-out: Minimum growth inhibitory concentration (MIC)
# Description: as §3, §4, §5, §6, §7, §8, §9
# [21] = tested on: Streptococcus faecalis (Hoshi); test: as above; type: cell-based; details: Enterococcus faecalis; HIA medium plate, 37° C., 18 hours; read-out: Minimum growth inhibitory concentration (MIC)
# Description: as §3, §4, §5, §6, §7, §8, §9
# [22] = tested on: Serratia marcescens (S-33); test: as above; type: cell-based; details: HIA medium plate, 37° C., 18 hours, read-out: Minimum growth inhibitory concentration (MIC)
# Description: as §3, §4, §5, §6, §7, §8, §9
# [23] = tested on: Escherichia coli (K-12); test: as above; type: cell-based; details: HIA medium plate, 37° C., 18 hours, read-out: Minimum growth inhibitory concentration (MIC)
# Description: as §3, §4, §5, §6, §7, §8, §9
# [24] = tested on: Pseudomonas aeruginosa (F1629); test: as above; type: cell-based; details: HIA medium plate, 37° C., 18 hours, read-out: Minimum growth inhibitory concentration (MIC)
# Description: as §3, §4, §5, §6, §7, §8, §9
# [25] = tested on: Klebsiella pneumoniae (Horino); test: as above; type: cell-based; details: HIA medium plate, 37° C., 18 hours, read-out: Minimum growth inhibitory concentration (MIC)
# Description: as §3, §4, §5, §6, §7, §8, §9
# [26] = tested on: Klebsiella pneumonia (F-5089); test: as above; type: cell-based; details: Klebsiella pneumoniae; HIA medium plate, 37° C., 18 hours; read-out: Minimum growth inhibitory concentration (MIC)
# Description: as §3, §4, §5, §6, §7, §8, §9
# [27] = tested on: Staphylococcus aureus (Y-8); test: as above; type: cell-based; details: HIA medium plate, 37° C., 18 hours, read-out: Minimum growth inhibitory concentration (MIC)
# Description: as §3, §4, §5, §6, §7, §8, §9
# [28] = tested on: Shigella flexneri (K-A); test: as above; type: cell-based; details: HIA medium plate, 37° C., 18 hours, read-out: Minimum growth inhibitory concentration (MIC)
# Description: as §3, §4, §5, §6, §7, §8, §9
# [29] = tested on: Proteus morganii (C-39); test: as above; type: cell-based; details: Morganella morganii; HIA medium plate, 37° C., 18 hours; read-out: Minimum growth inhibitory concentration (MIC)
# Description: as §3, §4, §5, §6, §7, §8, §9
# [30] = tested on: Enterobacter aerogenes (IFO 3320); test: as above; type: cell-based; details: Klebsiella aerogenes, read-out: Minimum growth inhibitory concentration (MIC)
# Description: as §3, §4, §5, §6, §7, §8, §9
# [31] = tested on: Pseudomonas aeruginosa; details: background art, in words; cited from earlier work
# [32] = tested on: Gram-positive or Gram-negative bacteria; details: background art, in words; cited from earlier work
# [33] = tested on: Pseudomonas aeruginosa (NCTC 7244); test: MIC in HIB medium by turbidity (Referential Example 2, Table 2); type: cell-based; details: NCTC7244, 18 h, 37° C.
# Description: as §1, §2
# [34] = HIA medium plate, 37° C., 18 hours
Compound,MBC ([1]; 10^5 cells/ml inoculated),MBC ([1]; 10^6 cells/ml inoculated),MBC ([1]; 10^7 cells/ml inoculated),MIC [3],MIC [4],MIC [5],MIC [6],MIC [7],MIC [8],MIC [9],MIC [10],MIC [11],MIC [13],MIC [15],MIC [16],MIC [17],MIC [18],MIC [19],MIC [20],MIC [21],also measured
"Cc1nnc(SCC2=C(C(=O)O)N3C(=O)[C@@H](NC(=O)Cn4cnnn4)[C@H]3SC2)s1 [CEZ, sodium 7-[1-(1H)-tetrazoylacetamido]-3-[2-(5-methyl-1,3,4thiadiazoyl)-thiomethyl]-Δ^3-cephem-4-carboxylate]",> 200 µg/mL,> 200 µg/mL,> 200 µg/mL,> 100 µg/mL,> 100 µg/mL,6.25 µg/mL,> 100 µg/mL,> 100 µg/mL,12.5 µg/mL,3.13 µg/mL,50 µg/mL,> 100 µg/mL,1.56 µg/mL,> 100 µg/mL,> 100 µg/mL,> 100 µg/mL,100 µg/mL,3.13 µg/mL,50 µg/mL,25 µg/mL,"MIC [2, 34]: 0.2 µg/mL; MIC ([12]; ATCC10031, 18 h): 1.56 µg/mL; MIC ([14]; 18 h): 1.56 µg/mL; MIC [22]: > 100 µg/mL; MIC [23]: 3.13 µg/mL; MIC [24]: > 100 µg/mL; MIC [25]: 3.13 µg/mL; MIC [26]: 3.13 µg/mL; MIC [27]: 0.78 µg/mL; MIC [28]: 1.56 µg/mL; MIC [29]: > 100 µg/mL; MIC ([30]; IFO3320, HIA medium plate, 37° C., 18 hours): 3.13 µg/mL; effectiveness for infections caused by Pseudomonas aeruginosa [31]: ineffective for infections caused by Pseudomonas aeruginosa; effectiveness for infections caused by Gram-positive or Gram-negative bacteria [32]: effective as therapeutic agents for infections caused by Gram-positive or Gram-negative bacteria; MIC ([33]; 10^5 cells/ml inoculated): > 200 µg/mL; MIC ([33]; 10^6 cells/ml inoculated): > 200 µg/mL; MIC ([33]; 10^7 cells/ml inoculated): > 200 µg/mL"
"CC1(C)S[C@@H]2[C@H](NC(=O)C(C(=O)O)c3ccccc3)C(=O)N2[C@H]1C(=O)O (stereo partly drawn) [CB-PC, disodium-α-carboxybenzyl penicillin]",100 µg/mL,100 µg/mL,> 200 µg/mL,25 µg/mL,100 µg/mL,> 100 µg/mL,100 µg/mL,> 100 µg/mL,3.13 µg/mL,6.25 µg/mL,3.13 µg/mL,> 100 µg/mL,1.56 µg/mL,> 100 µg/mL,25 µg/mL,25 µg/mL,100 µg/mL,25 µg/mL,3.13 µg/mL,50 µg/mL,"MIC ([2]; 18 h): 1.56 µg/mL; MIC ([12]; ATCC10031, HIA medium plate, 37° C., 18 hours): > 100 µg/mL; MIC [14, 34]: 6.25 µg/mL; MIC [22]: 6.25 µg/mL; MIC [23]: 6.25 µg/mL; MIC [24]: > 100 µg/mL; MIC [25]: 100 µg/mL; MIC [26]: 50 µg/mL; MIC [27]: 12.5 µg/mL; MIC [28]: 1.56 µg/mL; MIC [29]: 6.25 µg/mL; MIC ([30]; IFO3320, 18 h): 1.56 µg/mL; activity on Pseudomonas aeruginosa [31]: low activity on Pseudomonas aeruginosa; effectiveness for infections caused by Pseudomonas aeruginosa [31]: ineffective for Pseudomonas aeruginosa-induced infections of difficultly curable nature; MIC ([33]; 10^5 cells/ml inoculated): 50 µg/mL; MIC ([33]; 10^6 cells/ml inoculated): 100 µg/mL; MIC ([33]; 10^7 cells/ml inoculated): 200 µg/mL"
